Laboratory results from patent US20030166583A1, “Dermal cytochrome P450 1A inhibitors and enhancers” (priority 2002, published 2003).
Entries after “also recorded” stand apart in the source; their conditions may differ.

Key:
CYP1A [1] = assay: Liver microsomal CYP1A enzymatic activity, inhibition or enhancement; conditions: nude, mouse, liver microsomes, pH 7.8, probe 7-ethoxyresorufin
Description: (§3) Nude mice were sacrificed by decapitation. The skin and liver were immediately removed and kept in ice bath or 4° C. […] Connective tissue, blood, and fat were carefully removed from the tissue. Excess water content was removed from the homogenized tissue by tissue papers before the tissue was weighed.
(§4) The suspension of homogenized tissue in potassium chloride solution was transferred into a Teflon pestle-glass homogenizer for homogenization for six (6) times. Then, potassium chloride solution was added into the homogenized suspension to bring the volume to about four (4) times of the homogenized suspension. The diluted suspension was 5 transferred into a centrifuge tube and centrifuged at 4° C., 9000 xg, for twenty (20) minutes. The supernatant containing microsomes from skin or liver tissue and other soluble substance were removed and the volume of the supernatant was brought up to four (4) times of the weight of the tissue by adding potassium chloride solution. The diluted supernatant was transferred into a centrifuge tube and centrifuged at 4° C., 100,000 xg, for one (1) hour (Beckman L8-80M). The precipitate containing the microsomes was obtained. Potassium chloride solution was added into the precipitate to bring the volume up to four (4) times of the weight of the tissue, and the suspension was centrifuged at 4° C., 100,000 xg for one (1) hour, to obtain the washed microsomes, which were stored at −78° C. in 0.1M KH2PO4-K2HPO4 buffer (pH=7.4).
(§5) The enzymatic activity of CYP1A was determined based on the activity of 7-ethoxyresorufin-O-deethylase (i.e., for CYP1A) and 7-methoxyresorufin-O-demethylase (i.e., CYP1A2). […] Except for the blank group, the reaction was triggered by adding 0.54 μM NADPH. In the test tube (16×100 mm), the reaction was carried out for ten (10) minutes at constant temperature (37° C.) with vibration and without light Methanol 2.5 ml was added into the reaction mixture to stop the reaction. Protein precipitate was removed from the reaction mixture by centrifuging the reaction mixture at 180 xg for ten (10) minutes. The supernatant was tested for florescent intensity with 550 nm as the excitation wavelength and 585 nm the emission wavelength. The florescent intensity was compared with 0.01 μM-0.1 μM standard Rhodamine B solution to obtain the reading of the CYP1A enzyme activity.

liver CYP1A = assay: as above; conditions: for enhancing effect on liver CYP1A activity, in words / inhibitory effect on liver CYP1A activity, in words: at certain concentration (1, 10 or 100 μM); for liver CYP1A activity (% of control group): liver microsomes
Description: as §3, §4, §5

CYP1A [2] = assay: in vitro; conditions: nude, mouse
From the text: (§1) Nude mice were sacrificed by decapitation.
(§2) The precipitate containing the microsomes was obtained.

dermal CYP1A = assay: Dermal microsomal CYP1A enzymatic activity (7-ethoxyresorufin-O-deethylase), inhibition or enhancement; conditions: for inhibitory effect on dermal CYP1A activity, in words: at certain concentration (1, 10 or 100 μM); for dermal CYP1A activity (% of control group): skin microsomes, mean of at least 3 repeats; for enhancing effect on dermal CYP1A activity, in words: at certain concentrations (1, 10 or 100 μM)
From the text: as §1, §2

[3] = pH 7.8, dermal CYP1A activity (% of control group)
[4] = pH 7.8, inhibition of dermal CYP1A activity

Structure (SMILES)	activity at 10 min, 1 µM (CYP1A [1])	activity at 10 min, 10 µM (CYP1A [1])	activity at 10 min, 100 µM (CYP1A [1])	enhancing effect on liver CYP1A activity, in words (liver CYP1A)	liver CYP1A activity (% of control group) (liver CYP1A; compound 1 μM)	liver CYP1A activity (% of control group) (liver CYP1A; compound 10 μM)	inhibitory effect on dermal CYP1A activity, in words (dermal CYP1A)	dermal CYP1A activity (% of control group) (dermal CYP1A; compound 1 μM)	dermal CYP1A activity (% of control group) (dermal CYP1A; compound 10 μM)	dermal CYP1A activity (% of control group) (dermal CYP1A; compound 100 μM)	inhibitory effect on liver CYP1A activity, in words (liver CYP1A)	liver CYP1A activity (% of control group) (liver CYP1A; compound 100 μM)	activity at 10 min, 1 µM (CYP1A [2]; [3])	activity at 10 min, 10 µM (CYP1A [2]; [3])	activity at 10 min, 100 µM (CYP1A [2]; [3])	further results
CC(=O)OCCCc1ccccc1 [3-Phenyl propyl acetate, 3-phenylpropyl acetate]	151%	143%	157%	enhancing effect; also recorded: most enhancing effect												enhancing effect on liver CYP1A activity, in words (liver CYP1A; listed as 3-phenylpryl acetate): enhancing effect; activity at 10 min, 1 µM (CYP1A [2]; pH 7.8): 28.3%; activity at 10 min, 10 µM (CYP1A [2]; pH 7.8): 89.4%; activity at 10 min, 100 µM (CYP1A [2]; pH 7.8): 85%; inhibition at 10 min, 1 µM (CYP1A [2]; pH 7.8): ~72%
O=c1cc(-c2ccccc2)oc2cc(O)c(O)c(O)c12 [Baicalein]				enhancing effect	110.67%	114.18%	inhibition effects	64.73%	48.84%	55.82%						inhibition of dermal CYP1A activity (dermal CYP1A; compound 10 μM): about 47%
O=C(O)[C@H]1O[C@@H](Oc2cc3oc(-c4ccccc4)cc(=O)c3c(O)c2O)[C@H](O)[C@@H](O)[C@@H]1O [Baicalin]				enhancing effect	106.19%	90.79%	inhibition effects	90.14%	82.85%	75.91%	inhibitory effects	106.06%				inhibition of dermal CYP1A activity (dermal CYP1A; compound 100 μM): about 24%
C=CC(=C)CCC=C(C)C [Beta-Myrcene]	82%	98%	100%	enhancing effect							inhibitory effects					activity at 10 min, 1 µM (CYP1A [2]; pH 7.8): 101%; activity at 10 min, 10 µM (CYP1A [2]; pH 7.8): 78.2%; activity at 10 min, 100 µM (CYP1A [2]; pH 7.8): 73.6%; inhibition at 10 min, 100 µM (CYP1A [2]; pH 7.8): ~26%
CC12CCC(CC1)C(C)(C)O2 [Cineole]	117%	99.9%	94.7%	enhancing effect							inhibitory effects		199%	130%	96.4%	inhibition at 10 min, 100 µM (CYP1A [2]; [4]): ~5%
O=c1c(-c2ccc(O)cc2)coc2cc(O)ccc12 [Daidzein]	109%	112%	135%										77.5%	71.7%	77.2%	inhibition at 10 min, 10 µM (CYP1A [2]; [4]): ~28%
COc1ccc(-c2cc(=O)c3c(O)cc(O[C@@H]4O[C@H](CO[C@@H]5O[C@@H](C)[C@H](O)[C@@H](O)[C@H]5O)[C@@H](O)[C@H](O)[C@H]4O)cc3o2)cc1O [Diosmin]	108%	97.3%	43.8%	enhancing effect							inhibitory effects					activity at 10 min, 1 µM (CYP1A [2]; pH 7.8): 64.3%; activity at 10 min, 10 µM (CYP1A [2]; pH 7.8): 54.3%; activity at 10 min, 100 µM (CYP1A [2]; pH 7.8): 32.9%; inhibition at 10 min, 100 µM (CYP1A [2]; pH 7.8): ~67%
CC(C)[C@@H](C)/C=C/[C@@H](C)[C@H]1CC[C@H]2C3=CC=C4C[C@@H](O)CC[C@]4(C)[C@H]3CC[C@]12C [Ergosterol]	103%	104%	97.7%	enhancing effect							inhibitory effects					activity at 10 min, 10 µM (CYP1A [2]; pH 7.8): 57.3%; activity at 10 min, 100 µM (CYP1A [2]; pH 7.8): 52.2%
COc1ccc(-c2coc3cc(O)ccc3c2=O)cc1 [Formononetin]	121%	144%	145%	enhancing effect; also recorded: most enhancing effect									67%	109%	85.9%	inhibition at 10 min, 1 µM (CYP1A [2]; [4]): ~33%
O=C(O)c1cc(O)c(O)c(O)c1 [Gallic acid]		123%	105%										102%	107%	88.2%	inhibition at 10 min, 100 µM (CYP1A [2]; [4]): ~12%
COc1ccc([C@@H]2CC(=O)c3c(O)cc(O[C@@H]4O[C@H](CO[C@@H]5O[C@@H](C)[C@H](O)[C@@H](O)[C@H]5O)[C@@H](O)[C@H](O)[C@H]4O)cc3O2)cc1O [Hesperidin]				enhancing effect	99.65%	87.38%	inhibition effects	62.61%	52.72%	57.75%	inhibitory effects	102.94%				inhibition of dermal CYP1A activity (dermal CYP1A; compound 10 μM): about 47%
O=c1cc(-c2ccc(O)c(O)c2)oc2cc(O[C@@H]3O[C@H](CO)[C@@H](O)[C@H](O)[C@H]3O)cc(O)c12 [Luteolin-7-glucoside]				enhancing effect	109.79%	119.53%	inhibition effects	105.07%	88.05%	2.53%		123.78%				inhibitory effect on dermal CYP1A activity, in words (dermal CYP1A; listed as luteolin-7-glycoside): strongest inhibitory effect; also recorded: most effective inhibitors; enhancing effect on dermal CYP1A activity, in words (dermal CYP1A): enhancing effects; inhibition of dermal CYP1A activity (dermal CYP1A; compound 100 μM, 100 µM): about 97%
O=c1cc(-c2ccc(O)c(O)c2)oc2cc(O)cc(O)c12 [Luteolin]	115%	104%	33.4%										59.1%	19.4%	10.4%	inhibition at 10 min, 100 µM (CYP1A [2]; [4]): ~90%
O=C1C[C@@H](c2ccc(O)cc2)Oc2cc(O)cc(O)c21 [Narigenin]				enhancing effect	116.45%	107.17%	inhibition effects	29.41%	34.90%	17.26%	inhibitory effects	41.64%				inhibition of dermal CYP1A activity (dermal CYP1A; compound 100 μM): about 83%
C[C@@H]1O[C@@H](O[C@H]2[C@H](Oc3cc(O)c4c(c3)O[C@H](c3ccc(O)cc3)CC4=O)O[C@H](CO)[C@@H](O)[C@@H]2O)[C@H](O)[C@H](O)[C@H]1O [Narigin]				enhancing effect; also recorded: most enhancing effect	138.88%	119.79%	inhibition effects	149.99%	103.30%	77.31%		120.55%				enhancing effect on liver CYP1A activity (liver CYP1A; compound 100 μM): about 21%; enhancing effect on dermal CYP1A activity, in words (dermal CYP1A): enhancing effects; also recorded: strongest enhancing effect; enhancement of dermal CYP1A activity (dermal CYP1A; compound 1 μM): about 50%; inhibition of dermal CYP1A activity (dermal CYP1A; compound 100 μM): about 23%
O=C(O)/C=C/c1ccc(O)cc1O [Umbellic acid]			121%	enhancing effect												
